# Like-named read-outs stand apart in the source and are kept apart here.
# Columns and labels:
# [1] = test system: T. b. brucei s427; set-up: method as in earlier work; conditions: cited from earlier work
# [2] = test system: T. equiperdum (BoTat1); test: resazurin drug sensitivity assay, T. equiperdum; assay type: cell-based, Trypanosoma equiperdum; conditions: for T. equiperdum RF: RF = EC50 (parasite)/EC50(s427 WT); for T. equiperdum SI: SI = EC50 (HEK)/EC50(parasite)
# [3] = test system: T. b. brucei s427; test: resazurin drug sensitivity assay, T. b. brucei s427 wild-type bloodstream forms; assay type: cell-based, Trypanosoma brucei brucei; conditions: for T. b. brucei s427 SI: SI = EC50 (HEK)/EC50(parasite); for EC50: read-out: T. b. brucei s427 EC50
# [4] = test system: T. evansi (AnTat 3/3); test: resazurin drug sensitivity assay, T. evansi; assay type: cell-based, Trypanosoma evansi; conditions: for T. evansi RF: RF = EC50 (parasite)/EC50(s427 WT); for T. evansi SI: SI = EC50 (HEK)/EC50(parasite); for EC50: Trypanosoma evansi
# [5] = test system: T. b. brucei B48; test: microbe, parasite or virus in culture; assay type: cell-based, Trypanosoma brucei brucei; conditions: for T. b. brucei B48 RF: RF = EC50 (parasite)/EC50(s427 WT); for T. b. brucei B48 SI: SI = EC50 (HEK)/EC50(parasite)
# [6] = test system: HEK 293 cells; test: toxicity assay on HEK 293 cells (Alamar Blue); conditions: for toxicity to HEK 293 cells at the highest concentration tested: highest tested concentration 100 or 200 µg/mL (1: 300 µM; 4: 140 µM; 5: 427 µM); for EC50: read-out: HEK 293 EC50, average ± SEM
# [7] = test system: Trypanosoma congolense (IL3000); test: resazurin drug sensitivity assay, T. congolense; assay type: cell-based; conditions: for T. congolense RF: RF = EC50 (parasite)/EC50(s427 WT); for T. congolense SI: SI = EC50 (HEK)/EC50(parasite)
# [8] = test system: Leishmania mexicana promastigotes; test: resazurin drug sensitivity assay, L. mexicana promastigotes; assay type: cell-based; conditions: for L. mexicana SI: SI = EC50 (HEK)/EC50(parasite)
# [9] = test system: T. b. brucei s427; set-up: method as in PMID 27313159; conditions: cited from earlier work
# [10] = test system: trypanosomes of the Trypanozoon subgenus (T. b. brucei, T. evansi and T. equiperdum); test: resazurin assay, summary over Trypanozoon subgenus trypanosomes; assay type: cell-based, Trypanosoma; conditions: for EC50: Trypanosoma brucei, T. b. brucei s427, B48, T. evansi, T. equiperdum, read-out: EC50 values against trypanosomes of the Trypanozoon subgenus (range)
# [11] = test system: all trypanosome species; test: resazurin assay, summary over trypanosome species; assay type: cell-based, Trypanosoma
# [12] = test system: kinetoplastid parasites (trypanosomes and L. mexicana); test: resazurin assay, summary of anti-kinetoplastid activity across the board; assay type: cell-based; conditions: Leishmania mexicana, read-out: EC50, anti-kinetoplastid activity across the board (range)
# [13] = test system: T. b. brucei s427; set-up: method as in doi:10.3390/M1070; conditions: read-out: EC50 against T. b. brucei s427; cited from earlier work
# [14] = test system: macrophages RAW264.7; set-up: method as in doi:10.3390/M1070; conditions: normal cell lines; cited from earlier work
# [15] = Trypanosoma equiperdum, average ± SEM
# [16] = Trypanosoma brucei, read-out: T. b. brucei B48 EC50, multi-drug-resistant clone, average ± SEM
# [17] = Trypanosoma congolense, average ± SEM
# [18] = Leishmania mexicana, read-out: L. mexicana EC50, promastigotes, average ± SEM
# [19] = Trypanosoma brucei, average ± SEM, at least three independent determinations
# [20] = printed in brackets beside the µg/mL value
# [21] = Leishmania mexicana, promastigotes, average ± SEM, read-out: L. mexicana EC50
# [22] = a = EC50 of control for 1, 3, 4
# [23] = b = EC50 of control for 5, 6, 7
Structure (SMILES),T. equiperdum RF [2],T. equiperdum SI [2],"EC50 [2, 15]",T. b. brucei s427 SI [3],EC50 ([3]; Trypanosoma brucei),T. evansi RF [4],T. evansi SI [4],EC50 ([4]; average ± SEM),T. b. brucei B48 RF [5],T. b. brucei B48 SI [5],"EC50 [5, 16]",EC50 [6],T. congolense RF [7],T. congolense SI [7],"EC50 [7, 17]","EC50 [3, 19]","EC50 [8, 21]",other results
"COc1ccc2c(c1OC)C(CC(C)=O)N(C)c1c-2ccc2cc3c(cc12)OCO3 (centres unmarked) [6-Acetonyl-5,6-dihydrochelerythrine]",–,–,–,–,–,–,–,–,–,–,–,–,–,–,–,–,–,activity against T. b. brucei s427 [1]: no significant activity
"COc1ccc(C(=O)C[C@H](O)c2c(O)cc(OC)cc2OC)cc1 [Compound 1, (S)-3-hydroxy-3-(2″-hydroxy-4″,6″-dimethoxyphenyl)-1-(4′-methoxyphenyl)propan-1-one]",0.60,>14,~20 µM,>8.5,35.5 ± 3.6 µM,1.3,>6.5,46 ± 2.4 µM,1.4,>6.0,50.2 ± 15 µM,> 300 µM,6.9,>1.2,246 ± 5 µM,–,–,"EC50 ([2]; average ± SEM): 21.4 ± 3.9 µM; toxicity to HEK 293 cells at the highest concentration tested [6]: non-toxic; EC50 [8, 18]: 581 ± 3 µM"
"CC(=O)O[C@@H]1[C@H]2[C@H]3[C@H]([C@H](OC(C)=O)[C@H](OC(C)=O)[C@]2(C)[C@@H]2[C@@H]1[C@]1(C)C(=C[C@H]2C)OC(=O)[C@@]1(C)O)[C@]1(C)[C@H](C[C@@H]2O[C@@H]2[C@@H]1OC(C)=O)C(=O)[C@@H]3O [Compound 3, taccalonolide A]",0.86,>2.6,55.8 µM,>2.2,–,1.0,>2.2,66.3 ± 9.5 µM,0.7,>3.1,45.4 ± 4.1 µM,> 143 µM,1.6,>1.4,105 ± 41 µM,64.7 ± 21.2 µM,> 285 µM,"activity against T. b. brucei s427 [9]: 11.42 µg/mL; activity against T. b. brucei s427 [9, 20]: 16.3 µM; EC50 [10]: 45.4 to 66.3 µM; RF (cross-resistance) with B48, T. evansi and T. equiperdum ([10]; relative to s427): ≤ 1; L. mexicana EC50 ([8]; promastigotes, average ± SEM): low activity"
"CCC(=O)O[C@H]1[C@@H](OC(C)=O)[C@H]2[C@H]([C@@H]3[C@@H](OC(C)=O)[C@@H]4[C@H]([C@H](C)C=C5OC(=O)[C@@](C)(O)[C@@]54C)[C@]31C)[C@@H](O)C(=O)[C@H]1C[C@@H]3O[C@@H]3[C@H](OC(C)=O)[C@]21C [Compound 4, Taccalonolide A 12-propanoate]",1.5,>1.8,77.7 ± 10.5 µM,>2.6,–,1.6,>1.7,82.7 ± 7.4 µM,1.4,>1.9,75.1 ± 12.3 µM,> 140 µM,>2.8,–,> 140 µM,53.4 µM,> 280 µM,"EC50 ([3]; average ± SEM, at least three independent determinations): 53.3 ± 8.6 µM; activity against T. b. brucei s427 [9]: 3.13 µg/mL; activity against T. b. brucei s427 [9, 20]: 4.6 µM; L. mexicana EC50 ([8]; promastigotes, average ± SEM): low activity"
"CC(=O)O[C@H]1CC[C@]2(C)[C@H]3CC[C@]4(C)C(=CC[C@@]5(C)CCC(C)(C)C[C@H]54)[C@]3(C)CC[C@H]2C1(C)C [Compound 5, taraxerol acetate]",0.13,>20,~20 µM,>3.1,138 ± 61 µM,0.4,>6.8,62.9 ± 1.5 µM,0.75,>3.4,128 ± 5 µM,> 427 µM,1.1,–,178 ± 14 µM,–,–,"EC50 ([2]; average ± SEM): 21.3 ± 0.3 µM; EC50 ([11]; Trypanosoma equiperdum, all but T. equiperdum, read-out: EC50 against most trypanosome species): > 60 µM; toxicity to HEK 293 cells at the highest concentration tested [6]: not toxic; EC50 [8, 18]: > 427 µM"
"COc1ccc2c(c1OC)CN(C)c1c-2ccc2cc3c(cc12)OCO3 [Compound 6, dihydrochelerythrin]",2.2,30.4,3.09 ± 0.52 µM,68.0,–,0.8,87,1.09 ± 0.06 µM,1.8,37.0,2.56 µM,94.4 ± 23.2 µM,6.0,11.4,8.3 ± 0.57 µM,1.37 ± 0.43 µM,5.4 ± 0.6 µM,"EC50 ([5]; read-out: T. b. brucei B48 EC50, multi-drug-resistant clone, average ± SEM): 2.55 ± 0.29 µM; EC50 [10]: 1.37 to 3.09 µM; EC50 [12]: 1.4 to 8.3 µM; L. mexicana SI [8]: 18; EC50 ([8]; promastigotes, average ± SEM, read-out: L. mexicana EC50): 5.44 ± 0.57 µM"
"CC(C)CNC(=O)/C=C/c1ccc2c(c1)OCO2 [Compound 7, fagaramide]",1.5,13.4,27.1 ± 0.1 µM,20.4,17.8 ± 7.3 µM,0.6,33.0,10.9 ± 0.4 µM,0.6,33.8,10.9 ± 0.4 µM,364 ± 44 µM,1.9,10.6,34.4 ± 5.7 µM,–,13.3 ± 0.4 µM,"EC50 ([11]; Trypanosoma, read-out: EC50 against all trypanosome species (range)): 10.9 to 34.4 µM; EC50 [13]: 7.3 µM; EC50 [14]: 215 µM; EC50 [12]: 10.9 to 34.4 µM; L. mexicana SI [8]: 27"
"N=C(N)c1ccc(N=NNc2ccc(C(=N)N)cc2)cc1 [DA, diminazene aceturate, reference compound]",–,–,–,–,–,–,–,–,–,–,–,–,–,–,–,–,–,"EC50 [7, 22]: 0.51 µM; EC50 [7, 23]: 0.46 µM"
"N=C(N)c1ccc(OCCCCCOc2ccc(C(=N)N)cc2)cc1 [PMD, pentamidine isethionate, reference compound]",–,–,–,–,–,–,–,–,approximately 50,–,–,–,–,–,–,–,–,"EC50 ([2]; Trypanosoma equiperdum, a = EC50 of control for 1, 3, 4): 0.0081 µM; EC50 ([2]; Trypanosoma equiperdum, b = EC50 of control for 5, 6, 7): 0.0033 µM; EC50 ([3]; Trypanosoma brucei, a = EC50 of control for 1, 3, 4): 0.0066 µM; EC50 ([3]; Trypanosoma brucei, b = EC50 of control for 5, 6, 7): 0.0052 µM; EC50 [4, 22]: 0.016 µM; EC50 [4, 23]: 0.0025 µM; EC50 ([5]; Trypanosoma brucei, read-out: T. b. brucei B48 EC50, a = EC50 of control for 1, 3, 4): 0.312 µM; EC50 ([5]; Trypanosoma brucei, read-out: T. b. brucei B48 EC50, b = EC50 of control for 5, 6, 7): 0.288 µM; T. b. brucei B48 RF ([5]; a = control for 1, 3, 4): 47.3; T. b. brucei B48 RF ([5]; b = control for 5, 6, 7): 55.4; EC50 ([8]; Leishmania mexicana, a = EC50 of control for 1, 3, 4, read-out: L. mexicana EC50): 1.1 µM; EC50 ([8]; Leishmania mexicana, b = EC50 of control for 5, 6, 7, read-out: L. mexicana EC50): 0.76 µM"

# Source: article PMC12156181, “Antitrypanosomal and Antileishmanial Activities of Tacca leontopetaloides Tubers and Zanthoxylum zanthoxyloides Stem Bark” (Molecules, 2025)
